PMC5522529, “Mechanisms of Paradoxical Activation of AMPK by the Kinase Inhibitors SU6656 and Sorafenib” (Cell Chemical Biology, 2017)

Experiments:
[1] = target: T1, α2-KD (Homo sapiens, UniProt P54646); test: Activation and phosphorylation of unphosphorylated α2-KD (WT) by LKB1; type: biochemical
T1 construct: amplifying residues 1-310 with 5' BamH1 and 3' Xho1 sites; made in house; host or cells: bacteria
Excerpt: (B) Effect of ATP concentration on kinase activity of α2-KD in the presence of increasing concentrations of SU6656. Results (mean, n = 2) were fitted to the equation Y= (Vmax × X)/(Km × (1 + I/Ki) + X), where Y is the activity, X is the ATP concentration, I is the concentration of SU6656, and Ki is the inhibitory constant for SU6656. […] (D and E) Effect of increasing concentrations of SU6656 on activity (D) and Thr172 phosphorylation (E) induced by LKB1 with unphosphorylated α2-KD (WT/AT mutant). Results in (D) are mean ± SEM (n = 3); and were fitted to same equation as Figure 4C. […] See also Figure S3. (F) Effect of AMP (2 mM) and SU6656 on inactivation of AMPK by PP2Cα in the presence of 5 mM ATP. […] (G) Effects of AMP or SU6656 on activation (top) and Thr172 phosphorylation (bottom) by LKB1 of AMPK-γ1 complexes expressed in HeLa cells. FLAG-tagged AMPK-γ1, either wild-type (WT) or R299G mutant (RG), was expressed in HeLa cells and AMPK complexes precipitated using anti-FLAG antibody. The complexes (which have low basal phosphorylation due to lack of LKB1 in HeLa cells) were incubated with or without a limiting amount of LKB1, AMP (200 μM) or SU6656 (3 μM) for 10 min and AMPK activity determined.
We next used unphosphorylated α2-KD and tested the effect of SU6656 on its activation and phosphorylation by LKB1.

[2] = target: T1, α2-KD; test: Inactivation of α2-KD by PP2Cα; type: biochemical; conditions: 5 mM ATP, AMP 2 mM, SU6656 up to 10 μM
Experimental: Figure 5 SU6656 Promotes AMPK Activation by Binding to the Catalytic Site: Studies in Cell-Free Assays (A) Effect of increasing concentrations of SU6656 ± 1 mM AMP in the presence of 2 mM ATP on the activity of purified rat liver AMPK. (B) Effect of ATP concentration on kinase activity of α2-KD in the presence of increasing concentrations of SU6656. Results (mean, n = 2) were fitted to the equation Y= (Vmax × X)/(Km × (1 + I/Ki) + X), where Y is the activity, X is the ATP concentration, I is the concentration of SU6656, and Ki is the inhibitory constant for SU6656. The curves were generated using this equation with the best-fit values of Vmax, Km, and Ki (shared between all four curves) quoted in the main text. (C) Inhibition of phosphorylated α2-KD (WT or AT mutant) by SU6656. […] The reduced inhibition at 10 μM SU6656 may be due to the inhibitor coming out of solution, so those data were not used for curve fitting. (D and E) Effect of increasing concentrations of SU6656 on activity (D) and Thr172 phosphorylation (E) induced by LKB1 with unphosphorylated α2-KD (WT/AT mutant). Results in (D) are mean ± SEM (n = 3); and were fitted to same equation as Figure 4C. […] The complexes (which have low basal phosphorylation due to lack of LKB1 in HeLa cells) were incubated with or without a limiting amount of LKB1, AMP (200 μM) or SU6656 (3 μM) for 10 min and AMPK activity determined. […]

[3] = target: T2, LKB1 (Homo sapiens, UniProt Q15831); test: LKB1 assay using LKBtide peptide substrate; type: biochemical; conditions: alternative peptide substrate (LKBtide)
T2 construct: made in house; host or cells: Sf9 cells
Experimental: We next used unphosphorylated α2-KD and tested the effect of SU6656 on its activation and phosphorylation by LKB1. […] There was no effect of SU6656 when LKB1 was assayed using an alternative peptide substrate (Figure S3), confirming that it acts by binding to AMPK rather than to LKB1. The half-maximal effect of SU6656 on α2-KD activation was at 0.20 ± 0.02 μM, close to the IC50 for inhibition of catalytic activity (0.22 ± 0.02 μM).
Endogenous AMPK was immunoprecipitated using the specified antibodies (for total AMPK, an equal mixture of anti-α1 and –α2 antibodies) and assayed at 200 μM ATP ([Hardie et al., 2000], [Towler et al., 2008]) using the AMARA peptide ([Dale et al., 1995]) as substrate, except for assays of allosteric activation by AMP (Figure 5A) where the SAMS peptide was used as substrate with 2 mM ATP ([Gowans et al., 2013]). The AMPK-related kinases SIK1, SIK2, SIK3, SNARK, MARK2/3 and MARK4 were immunoprecipitated and assayed as previously described ([Lizcano et al., 2004]) in lysates of Hela cells stably expressing LKB1 ([Fogarty et al., 2010]). LKB1 was assayed using the LKBtide peptide as substrate ([Sakamoto et al., 2004]).
LKB1 was assayed using the LKBtide peptide as substrate as
described in the Star Methods section.

[4] = tested on: Erk1/Erk2; test: Erk1/Erk2 phosphorylation in HEK293 cells (western blot); type: cell-based, human; conditions: SU6656 100 μM, PP2 100 nM

T1 sequence (P54646 1-310): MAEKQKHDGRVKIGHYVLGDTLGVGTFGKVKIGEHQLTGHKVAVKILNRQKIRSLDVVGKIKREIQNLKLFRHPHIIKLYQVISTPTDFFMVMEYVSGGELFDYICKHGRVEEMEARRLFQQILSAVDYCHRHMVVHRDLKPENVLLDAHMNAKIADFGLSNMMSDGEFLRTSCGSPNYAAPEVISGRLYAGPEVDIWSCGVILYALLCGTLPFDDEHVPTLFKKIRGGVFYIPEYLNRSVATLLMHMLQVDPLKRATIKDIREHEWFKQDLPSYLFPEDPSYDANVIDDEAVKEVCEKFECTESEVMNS
T2 sequence (Q15831 whole entry): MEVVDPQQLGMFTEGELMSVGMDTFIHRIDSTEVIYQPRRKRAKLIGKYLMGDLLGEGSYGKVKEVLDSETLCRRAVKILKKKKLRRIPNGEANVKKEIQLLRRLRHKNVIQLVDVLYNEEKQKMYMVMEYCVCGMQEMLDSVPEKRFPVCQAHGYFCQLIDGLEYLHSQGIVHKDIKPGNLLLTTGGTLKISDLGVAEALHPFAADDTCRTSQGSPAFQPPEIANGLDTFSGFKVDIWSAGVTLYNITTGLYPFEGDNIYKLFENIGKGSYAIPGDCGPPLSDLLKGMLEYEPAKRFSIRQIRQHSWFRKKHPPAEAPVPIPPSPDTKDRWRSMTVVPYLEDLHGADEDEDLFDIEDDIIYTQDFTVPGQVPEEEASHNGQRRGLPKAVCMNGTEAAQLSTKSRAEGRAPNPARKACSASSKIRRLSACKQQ
T2 sequence (Q7RTN6 whole entry partner): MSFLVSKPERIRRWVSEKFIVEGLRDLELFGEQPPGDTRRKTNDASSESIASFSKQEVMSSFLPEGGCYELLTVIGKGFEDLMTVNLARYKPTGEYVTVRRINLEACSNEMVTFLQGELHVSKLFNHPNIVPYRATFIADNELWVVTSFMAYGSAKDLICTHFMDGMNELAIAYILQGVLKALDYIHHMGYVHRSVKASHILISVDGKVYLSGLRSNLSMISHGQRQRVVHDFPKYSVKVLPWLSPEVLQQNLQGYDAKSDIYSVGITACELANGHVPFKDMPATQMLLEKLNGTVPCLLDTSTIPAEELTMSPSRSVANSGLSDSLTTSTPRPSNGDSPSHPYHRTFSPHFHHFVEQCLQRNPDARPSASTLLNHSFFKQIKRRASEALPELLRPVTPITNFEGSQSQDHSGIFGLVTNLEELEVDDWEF
T2 sequence (Q9Y376 whole entry partner): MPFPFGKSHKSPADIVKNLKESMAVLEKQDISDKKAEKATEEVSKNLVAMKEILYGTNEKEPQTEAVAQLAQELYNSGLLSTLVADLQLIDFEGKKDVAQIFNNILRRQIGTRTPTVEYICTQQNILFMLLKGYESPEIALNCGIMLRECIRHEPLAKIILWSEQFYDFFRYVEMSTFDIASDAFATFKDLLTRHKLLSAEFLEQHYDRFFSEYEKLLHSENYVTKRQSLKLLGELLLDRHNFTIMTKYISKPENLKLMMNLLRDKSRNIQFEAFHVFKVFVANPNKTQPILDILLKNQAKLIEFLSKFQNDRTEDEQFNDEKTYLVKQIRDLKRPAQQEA

CN(C)S(=O)(=O)c1ccc2c(c1)/C(=C/c1cc3c([nH]1)CCCC3)C(=O)N2 [SU6656]
activation of α2-KD by LKB1 ([1]; SU6656 up to 10 μM): 1.9 ± 0.2 fold
Kd ([1]; read-out: half-maximal effect on α2-KD activation by LKB1): 0.2 ± 0.02 µM
protection against inactivation by PP2Cα [2]: did not protect against inactivation
effect on LKB1 activity [3]: no effect
Erk1/Erk2 phosphorylation [4]: reduced phosphorylation of Erk1/Erk2
